From US20110117171A1, “IMPLANTABLE BONE GRAFT MATERIALS” (AFFINERGY, INC., priority 2009, published 2011) come the findings set out here.

Ends that are not written are not given here. spacer = not defined here

Assay [1] relates to human MSCs. The assay can be described thus: Capture of MSCs from a mixed cell population with peptide on CELLECTION magnetic beads. Conditions: starting mixture 38% IM9, 56% U937, 4% MSC; FIG. 17C. Type of assay: cell-based. The text has this: In this experiment, biotinylated cell binding peptide, SEQ ID NO: 16, was attached to CELLECTION magnetic beads. The CELLECTION beads have streptavidin coupled to a magnetic particle through a DNA linker. Three different cell types, human MSCs, IM-9, and U937 cells were differentially labeled with […] dye and mixed in a ratio such that the MSCs represented ˜4% of the starting cell mixture (the percentage of each cell type in the starting mixture was 38% IM9, 56% U937, and 4% MSC). The cell binding peptide, SEQ ID NO: 16, was biotinylated as described herein at Example 2, as was a general cell binding peptide for use as a control peptide in the experiment. Magnetic particles with no peptide attached, as well as magnetic beads having attached either the cell binding peptide, SEQ ID NO: 16, or the control peptide were tested for their ability to capture human MSCs. The starting cell mixture was incubated with magnetic beads having either attached peptide or no peptide, the beads were washed, and the captured cells were released from the beads by DNase treatment. The cells were measured by flow cytometry histograms shown in 17A-17C. The magnetic beads without peptide captured little or no cells (FIG. 17B). The magnetic beads with attached cell binding peptide SEQ ID NO: 16 captured a cell population that was 96% MSCs (FIG. 17C).

Assay [2] has as its system human MSCs from bone marrow aspirate. The assay can be described thus: Capture of cultured MSCs with biotinylated peptide on […] streptavidin microbeads in LS columns. Type of assay: cell-based. As to conditions: 160,000 cultured human MSCs, peptide 20 μM on streptavidin microbeads, FIG. 16. The method, then:
In this experiment the ability of the biotinylated cell binding peptide SEQ ID NO: 4 to capture human MSCs from a homogeneous cultured cell population was examined. The cell binding peptide SEQ ID NO: 4 was biotinylated as described herein at Example 2. The cell binding peptide SEQ ID NO: 4, and a non-binding control peptide, were added to separate 300 μl volumes of […] BIOTEC Streptavidin microbeads at a concentration of 20 μM. These beads are made from iron filings, coated with a dextran coating which is functionalized with streptavidin moieties. Peptide was incubated with beads for 45 min on ice. The 300 μl of peptide coated microbeads were added to pre-equilibrated LS columns outside of the magnetic field to evenly distribute the magnetic beads throughout the columns. Columns were then placed into a magnetic field, and excess peptide was washed away with buffer while retaining the peptide coated microbeads. Cultured and expanded human MSCs from bone marrow aspirate (160,000 cells; LONZA) were added to each LS column and allowed to pass through by gravity flow. Flowthrough was collected and cycled through the columns 5 times, after which the columns were washed with 5 ml buffer. […] The collected flowthrough with 5 ml wash and eluted cells were spun down, resuspended in a smaller volume, and counted by hemacytometer (see FIG. 16). […]

Assay [3] has as its system MSCs directly from bone marrow aspirate. The assay can be described thus: Capture of MSCs from bone marrow aspirate, colony forming units after 14 days. As to conditions: streptavidin-coated MILTENYI beads, FIG. 18. It counts as cell-based, human. The method, then: (§1) This experiment was performed to examine the ability of cell binding peptide SEQ ID NO: 4 to capture MSCs directly from bone marrow aspirate in comparison to two separate antibodies against the CD105 I antigen (CD105) and the MSCA-1 stem cell antigen (MSCA-1). This experiment employed biotinylated peptides with streptavidin-coated […] magnetic beads. The peptides were biotinylated as described herein at Example 2. […] For the antibody capture experiment, magnetic beads having covalently attached CD105 or MSCA-1 antibody were employed ([…]). Prior to incubation with the peptides and antibodies, bone marrow aspirate (BMA) was mixed with 5 volumes of 10 mM ammonium chloride for 1-2 min at room temperature to lyse red blood cells. The lysate was centrifuged for 5 min at 300×g and the supernatant discarded. The cell pellet was washed with wash buffer (PBS+0.5% bovine serum albumin+0.5 mM EDTA) and cells were resuspended in […] peptide at a concentration of 10^8 per mL. For peptide binding studies, the cell suspension was incubated with the biotinylated peptides for 30 min at 4° C. to allow for binding. After incubation, cells were spun down at 300×g for 5 min, and peptide solution was aspirated. Cells were then rinsed twice with wash buffer, with centrifugation between washes. […] Colony forming units (CFUs) were counted after 14 days in culture. […]

In the next assay the test system is dermal fibroblasts. The assay can be described thus: Biotinylated peptide cell binding specificity by flow cytometry (Neutravidin-PE). Set-up: species or system human. Conditions: 30 min at 4° C., FIG. 15. The text has this: (§2) The synthetic biotinylated cell binding peptide SEQ ID NO: 4 was examined for its ability to specifically bind MSCs compared to a number of other cells types including adipose-derived mesenchymal stem cells (ASCs), dermal fibroblasts, rodent MSCs, red blood cells, monocytes, lymphocytes and granulocytes. The cell binding peptide was biotinylated as described herein at Example 2. Cultured cells of each type were either purchased (ASCs and dermal fibroblasts) or isolated from rodent bone marrow (rodent MSCs) or human blood. Cells were first harvested and resuspended at 10^6/mL in PBS+2% fetal bovine serum (FBS). An aliquot of cells (50 μL) was incubated in 50 μL of peptide solution (25 μM in PBS+FBS) for 30 min at 4° C. Cells were then washed twice in PBS+FBS with 300×g centrifugation for 5 min between washes. Fluorescently-tagged neutravidin (Neutravidin-PE from INVITROGEN) was then added to the cells to label biotinylated peptide bound to cells. Neutravidin-PE was diluted 1:250 from stock and applied at 50 μL to cells. Cells were then washed in PBS+FBS, and acquired on a BD […]. Peptide reactivity was then measured as percent positivity relative to Neutravidin-PE staining without the addition of biotinylated peptide.

The test system of a further assay is human ASCs. Described as above. Conditions: 30 min at 4° C., FIG. 15.
Description: as §2

Assay [4] concerns human MSCs. The assay is described as above. Conditions: 30 min at 4° C., FIG. 15.
Description: as §2

In assay [5] the test system is MSCs captured from bone marrow. The assay can be described thus: Chondrocyte differentiation of captured MSCs (aggrecan immunostaining). Type of assay: cell-based, human. As to conditions: 24 days in CHONDRODIFF medium, FIG. 21. The method, then:
Chondrocyte differentiation. To examine chondrocyte differentiation, the MSCs present in the […] column eluants (see Example 6) were pelleted by centrifugation at 150×g for 5 minutes. Cells were washed once with 1 ml MACS NH CHONDRODIFF Medium without disturbing the pellet. Cells were spun again and 1 mL CHONDRODIFF Medium was added to each pellet. Every third day, medium was aspirated and replaced with fresh pre-warmed medium. After 24 days in culture, cells exposed to CHONDRODIFF medium formed cartilage plugs or nodules, whereas control cells formed only loose or small nodules. Cells were washed once with PBS and fixed in neutral buffered formalin overnight. Sections were embedded in paraffin and sectioned at 5 microns. Sections were examined by hemotoxylin and eosin staining (data not shown). Sections were further examined by immunostaining for aggrecan, a major structural component of cartilage. In FIG. 21, sections from the periphery (panels A and B) or center (panels C and D) were incubated with an antibody against aggrecan (ABCAM) (panels B and D) or with secondary detection reagents only as a control (panels A and C), then counterstained with DAPI to reveal cell nuclei. […] Control images of captured cells grown in the absence of differentiation medium could not be taken due to the small and loose nature of nodules.

Assay [6] has as its system MSCs captured from bone marrow. The assay can be described thus: Adipocyte differentiation of captured MSCs (Oil Red O). Conditions: 21 days in adipocyte differentiation medium, FIG. 20 A/B. It counts as cell-based, human. On the procedure: Adipocyte differentiation. After capture of MSCs using cell binding peptide SEQ ID NO: 4 with the […] magnetic system according to Example 6, the ability of the captured cells to differentiate into an adipocyte lineage was examined. The MSCs present in the […] column eluants (see Example 6) were cultured for 21 days in complete medium (DMEM, 10% FBS, 100 units/mL penicillin, 100 μg/mL streptomycin, and 2 mM glutamine) supplemented with 0.5 mM isobutyl methylxanthine, 1 μM dexamethasone, 10 μM insulin, 200 μM indomethacin, and 1% antibiotic/antimycotic. Following the 21 day incubation, the cells were fixed in 4% paraformaldehyde in PBS for 15 minutes, washed in 60% isopropanol for 5 minutes, and stained with Oil Red O (SIGMA) for 10 minutes to determine the extent of adipogenesis (see FIG. 20, panels A (undifferentiated MSCs) and panel B (adipocyte differentiated MSCs)). The image of the adipose differentiated cells (FIG. 20, panel B) contains a larger magnification inset where the lipid vacuoles are clearly visible.

In assay [7] the test system is MSCs captured from bone marrow. The assay can be described thus: Osteoblast differentiation of captured MSCs (Alizarin Red S). Type of assay: cell-based, human. As to conditions: 14 days in osteoblast differentiation medium, FIG. 20 C/D. The method, then:
Osteoblast differentiation. For osteogenic differentiation, the MSCs present in the […] column eluants (see Example 6) were cultured for 14 days in complete medium supplemented with 0.1 μM dexamethasone, 50 μM ascorbate-2-phosphate, 10 mM β-glycerophosphate, and 1% antibiotic/antimycotic. Calcium mineralization was measured by Alizarin Red S (SIGMA) staining to reveal mineralizing osteoblasts (see FIG. 20, panel C (undifferentiated MSCs) and panel D (osteoblast differentiated MSCs)).

Assay [8] concerns MSCs captured from bone marrow aspirate. The assay can be described thus: Immunoreactivity of captured cells for surface antigens. It counts as cell-based, human. Conditions: CD29(+), CD44(+), CD73(+), CD166(+), CD90(+), CD45(−), CD34(−). On the procedure: as §1

With “SSFRFGPLGTWNYPSTDNAE (also: biotin, position not given here, on magnetic beads) [SEQ ID NO: 16, tested biotinylated on CELLECTION magnetic beads]”, the “MSCs in captured cell population” value in the assay with human MSCs [1] is 96%.

For “SSFWDVCQGDGTCYGGGSR (SSFWDVCQGDGTCYGGGSR-{spacer-biotin}; cysteine pairing not given here; reading uncertain; also: C-terminal spacer not given here) [SEQ ID NO: 4, tested biotinylated with a C-terminal spacer]”, in [2], the “capture of the MSCs” value is “approximately 70%”. For the same sequence, the “MSC capture (CFUs after 14 days in culture)” value in [3] is recorded as “as efficient as capture by either of the CD105 or MSCA-1 antibodies”. Moreover, the “binding to dermal fibroblasts (percent positivity relative to Neutravidin-PE staining)” value in the assay on dermal fibroblasts is given as “high binding”. Also, in the assay on human ASCs, the “binding to human ASCs (percent positivity relative to Neutravidin-PE staining)” value is given as “high binding”. Besides, the “binding to human MSCs (percent positivity relative to Neutravidin-PE staining)” value in the assay with human MSCs [4] is “high binding”. Also, in [5], the “aggrecan in nodules formed from captured MSCs” value is given as “aggrecan could be detected”. Also, the “adipogenesis of captured MSCs” value in assay [6] was “adipogenesis pathway remains intact”. For the same sequence, the “osteogenic differentiation of captured MSCs” value in [7] is given as “osteogenic pathway remains intact”. For the same sequence, the “immunoreactivity of isolated cells compared with CD105 isolated cells” value in [8] was “no changes were observed”.
